{"source": "paper PMC10892984", "about": "“Novel Antineoplastic Inducers of Mitochondrial Apoptosis in Human Cancer Cells” (Molecules, 2024)", "key": {"DU-145 cells": {"test_system": "DU-145 cells", "assay": "Cytochrome c assay (mitochondrial and cytosolic), ELISA", "format": "cell-based, human", "protocol": "(§1) Cell numbers of 2 × 10^6 PC-3 and DU-145 cells were seeded into a […]. […] The protein content for each fraction was calculated to determine the mass content of cytochrome c in each fraction (pg cytochrome c/mg total protein). The mass content of cytochrome c (pg cytochrome c/mg total protein) was normalized towards the corresponding blank DMSO control and is given in percent (%) of blank DMSO control."}, "PC-3 cells": {"test_system": "PC-3 cells", "assay": "Cytochrome c assay (mitochondrial and cytosolic), ELISA", "format": "cell-based, human", "protocol": "as §1"}, "[1]": {"test_system": "60 human cancer cell lines", "excerpt": "The defined tumor inhibition criterion (GI50, TGI, or LC50) is recalculated in log10 expression, and the colored bars, which indicate then the sensitivity of the individual tumor cell line to the agent, are given in log10 units. […] The most important feature is at the bottom of the page: the MID (Mean of Inhibition Data) indicates the mean concentration for all tested cell lines required for the drug to reach the defined tumor inhibition criterion (GI50, TGI, or LC50). It is given in Log10GI50, Log10TGI, and Log10LC50. From those values, the corresponding MID is calculated. […] The MID can be transformed from logarithmic into linear concentrations by the formula: c = 10^MID.\nThe human tumor cell lines of the cancer screening panel are grown in RPMI-1640 medium containing 5% fetal bovine serum (FBS) and 2 mM L-glutamine. For a typical screening experiment, cells are inoculated into 96-well microtiter plates in 100 μL at plating densities ranging from 5000 to 40,000 cells/well, depending on the doubling time of individual cell lines. After cell inoculation, the microtiter plates are incubated at 37 °C, 5% CO2, 95% air, and 100% relative humidity for 24 h prior to the addition of experimental drugs. After 24 h, two plates of each cell line are fixed in situ with trichloroacetic acid (TCA) to represent a measurement of the cell population for each cell line at the time of drug addition (Tz). Experimental drugs are solubilized in dimethyl sulfoxide (DMSO) at 400-fold the desired final maximum test concentration and stored frozen prior to use. At the time of drug addition, an aliquot of frozen concentrate is thawed and diluted to twice the desired final maximum test concentration with a complete medium containing 50 μg/mL gentamicin. Additional four, 10-fold or ½ log serial dilutions are made to provide a total of five drug concentrations plus control. Aliquots of 100 μL of these different drug dilutions are added to the appropriate microtiter wells already containing 100 μL of the medium, resulting in the required final drug concentrations.\nFollowing drug addition, the plates are incubated for an additional 48 h at 37 °C, 5% CO2, 95% air, and 100% relative humidity. For adherent cells, the assay is terminated by the addition of cold TCA. Cells are fixed in situ by the gentle addition of 50 μL of cold 50% (m/v) TCA (final concentration, 10% TCA) and incubated for 60 min at 4 °C. The supernatant is discarded, and the plates are washed five times with tap water and air dried. Sulforhodamine B (SRB) solution [100 μL at 0.4% (m/v) in 1% acetic acid] is added to each well, and plates are incubated for 10 min at room temperature. After staining, unbound dye is removed by washing five times with 1% acetic acid, and the plates are air dried. Bound stain is subsequently solubilized with 10 mM trizma® base [2-amino-2-(hydroxymethyl)-1,3-propandiol, tris base, trometamol], and the absorbance is read on an automated plate reader at a wavelength of λ = 515 nm. For suspension cells, the methodology is the same, except that the assay is terminated by fixing settled cells at the bottom of the wells by gently adding 50 μL of 80% TCA (final concentration, 16% TCA). Using the seven absorbance measurements [time zero, (Tz), control growth, (C), and test growth in the presence of the drug at the five concentration levels (Ti)], the percentage growth is calculated at each of the drug concentration levels. Percentage growth inhibition is calculated as:[(Ti − Tz)/(C − Tz)] × 100 for concentrations for which Ti ≥ Tz [(Ti − Tz)/Tz] × 100 for concentrations for which Ti < Tz\nThree dose-response parameters are calculated for each experimental agent."}, "[2]": {"conditions": "25 µM, 50 µM and 75 µM, 48 h post-treatment"}, "[3]": {"conditions": "Homo sapiens, 48 h, read-out: LC50"}}, "data": [{"smiles": "COc1cc2c(c(OC)c1OC)-c1ccc(NNC(N)=S)c(=O)cc1C(NC(C)=O)CC2", "note": "[Compound 2, N-[(aS,7S)-10-(2-carbamothioylhydrazinyl)-1,2,3-trimethoxy-9-oxo-5,6,7,9-tetrahydrobenzo[a]heptalen-7-yl]acetamide monohydrate × ⅔ (ethyl acetate)]", "values": [{"measurement": "toxicity for the cell line", "setting": "DU-145 cells; [2]", "result": "highly toxic"}, {"measurement": "difference in the cytochrome c-residing cellular compartment", "setting": "DU-145 cells; 48 h, stated as less significantly than in PC-3", "result": "failed to induce a significant difference"}, {"measurement": "toxicity for the cell line", "setting": "PC-3 cells; [2]", "result": "highly toxic"}, {"measurement": "difference in the cytochrome c-residing cellular compartment", "setting": "PC-3 cells; 48 h", "result": "failed to induce a significant difference"}, {"measurement": "GI50", "setting": "RPMI-8226; Homo sapiens, RPMI-8226, 48 h", "result": 0.349, "unit": "µM"}, {"measurement": "CC50", "setting": "RPMI-8226; Homo sapiens, RPMI-8226, 48 h, read-out: LC50", "result": "> 100", "unit": "µM"}, {"measurement": "TGI", "setting": "RPMI-8226; RPMI-8226, leukemia, mutant p53, 48 h", "result": 8.65, "unit": "µM"}, {"measurement": "GI50", "setting": "NCI-H23; Homo sapiens, NCI-H23, 48 h", "result": 0.438, "unit": "µM"}, {"measurement": "CC50", "setting": "NCI-H23; Homo sapiens, NCI-H23, 48 h, read-out: LC50", "result": "> 100", "unit": "µM"}, {"measurement": "TGI", "setting": "NCI-H23; NCI-H23, non-small-cell lung cancer, mutant p53, 48 h", "result": "> 100", "unit": "µM"}, {"measurement": "TGI", "setting": "COLO 205; COLO 205, colon cancer, mutant p53, 48 h", "result": 0.622, "unit": "µM"}, {"measurement": "GI50", "setting": "COLO 205; Homo sapiens, COLO 205, 48 h", "result": 0.28, "unit": "µM"}, {"measurement": "CC50", "setting": "COLO 205; Homo sapiens, COLO 205, 48 h, read-out: LC50", "result": 9.13, "unit": "µM"}, {"measurement": "TGI", "setting": "HCT-15; HCT-15, colon cancer, mutant p53, 48 h", "result": "> 100", "unit": "µM"}, {"measurement": "GI50", "setting": "HCT-15; Homo sapiens, HCT-15, 48 h", "result": 4.03, "unit": "µM"}, {"measurement": "CC50", "setting": "HCT-15; Homo sapiens, HCT-15, 48 h, read-out: LC50", "result": "> 100", "unit": "µM"}, {"measurement": "TGI", "setting": "HT29; HT29, colon cancer, mutant p53, 48 h", "result": "> 100", "unit": "µM"}, {"measurement": "GI50", "setting": "HT29; Homo sapiens, HT-29, 48 h", "result": 0.336, "unit": "µM"}, {"measurement": "CC50", "setting": "HT29; Homo sapiens, HT-29, 48 h, read-out: LC50", "result": "> 100", "unit": "µM"}, {"measurement": "GI50", "setting": "SW-620; Homo sapiens, SW-620, 48 h", "result": 0.369, "unit": "µM"}, {"measurement": "CC50", "setting": "SW-620; Homo sapiens, SW-620, 48 h, read-out: LC50", "result": "> 100", "unit": "µM"}, {"measurement": "TGI", "setting": "SW-620; SW-620, colon cancer, mutant p53, 48 h", "result": "> 100", "unit": "µM"}, {"measurement": "GI50", "setting": "SF-268; Homo sapiens, SF-268, 48 h", "result": 0.581, "unit": "µM"}, {"measurement": "CC50", "setting": "SF-268; Homo sapiens, SF-268, 48 h, read-out: LC50", "result": "> 100", "unit": "µM"}, {"measurement": "TGI", "setting": "SF-268; SF-268, CNS cancer (brain tumor), mutant p53, 48 h", "result": "> 100", "unit": "µM"}, {"measurement": "GI50", "setting": "SF-295; Homo sapiens, SF-295, 48 h", "result": 0.549, "unit": "µM"}, {"measurement": "CC50", "setting": "SF-295; Homo sapiens, SF-295, 48 h, read-out: LC50", "result": "> 100", "unit": "µM"}, {"measurement": "TGI", "setting": "SF-295; SF-295, CNS cancer (brain tumor), mutant p53, 48 h", "result": "> 100", "unit": "µM"}, {"measurement": "GI50", "setting": "SNB-19; Homo sapiens, SNB-19, 48 h", "result": 0.686, "unit": "µM"}, {"measurement": "CC50", "setting": "SNB-19; Homo sapiens, SNB-19, 48 h, read-out: LC50", "result": "> 100", "unit": "µM"}, {"measurement": "TGI", "setting": "SNB-19; SNB-19, CNS cancer (brain tumor), mutant p53, 48 h", "result": "> 100", "unit": "µM"}, {"measurement": "GI50", "setting": "SNB-75; Homo sapiens, SNB-75, 48 h", "result": 0.441, "unit": "µM"}, {"measurement": "CC50", "setting": "SNB-75; Homo sapiens, SNB-75, 48 h, read-out: LC50", "result": "> 100", "unit": "µM"}, {"measurement": "TGI", "setting": "SNB-75; SNB-75, CNS cancer (brain tumor), mutant p53, 48 h", "result": "> 100", "unit": "µM"}, {"measurement": "GI50", "setting": "SK-MEL-2; Homo sapiens, SK-MEL-2, 48 h", "result": "> 100", "unit": "µM"}, {"measurement": "CC50", "setting": "SK-MEL-2; Homo sapiens, SK-MEL-2, 48 h, read-out: LC50", "result": "> 100", "unit": "µM"}, {"measurement": "TGI", "setting": "SK-MEL-2; SK-MEL-2, melanoma, mutant p53, 48 h", "result": "> 100", "unit": "µM"}, {"measurement": "GI50", "setting": "SK-MEL-5; Homo sapiens, SK-MEL-5, 48 h", "result": 0.373, "unit": "µM"}, {"measurement": "CC50", "setting": "SK-MEL-5; Homo sapiens, SK-MEL-5, 48 h, read-out: LC50", "result": "> 100", "unit": "µM"}, {"measurement": "TGI", "setting": "SK-MEL-5; SK-MEL-5, melanoma, wild-type p53, 48 h", "result": 4.71, "unit": "µM"}, {"measurement": "GI50", "setting": "UACC-257; Homo sapiens, UACC-257, 48 h", "result": 0.646, "unit": "µM"}, {"measurement": "CC50", "setting": "UACC-257; Homo sapiens, UACC-257, 48 h, read-out: LC50", "result": "> 100", "unit": "µM"}, {"measurement": "TGI", "setting": "UACC-257; UACC-257, melanoma, wild-type p53, 48 h", "result": "> 100", "unit": "µM"}, {"measurement": "GI50", "setting": "OVCAR-3; Homo sapiens, OVCAR-3, 48 h", "result": 0.217, "unit": "µM"}, {"measurement": "TGI", "setting": "OVCAR-3; OVCAR-3, ovarian cancer, mutant p53, 48 h", "result": 0.459, "unit": "µM"}, {"measurement": "GI50", "setting": "OVCAR-4; Homo sapiens, OVCAR-4, 48 h", "result": 0.507, "unit": "µM"}, {"measurement": "CC50", "setting": "OVCAR-4; Homo sapiens, OVCAR-4, 48 h, read-out: LC50", "result": "> 100", "unit": "µM"}, {"measurement": "TGI", "setting": "OVCAR-4; OVCAR-4, ovarian cancer, mutant p53, 48 h", "result": "> 100", "unit": "µM"}, {"measurement": "GI50", "setting": "NCI/ADR-RES; Homo sapiens, 48 h", "result": 25.3, "unit": "µM"}, {"measurement": "CC50", "setting": "NCI/ADR-RES; [3]", "result": "> 100", "unit": "µM"}, {"measurement": "TGI", "setting": "NCI/ADR-RES; ovarian cancer, mutant p53, 48 h", "result": "> 100", "unit": "µM"}, {"measurement": "GI50", "setting": "SK-OV-3; Homo sapiens, SK-OV-3, 48 h", "result": 1.39, "unit": "µM"}, {"measurement": "CC50", "setting": "SK-OV-3; Homo sapiens, SK-OV-3, 48 h, read-out: LC50", "result": "> 100", "unit": "µM"}, {"measurement": "TGI", "setting": "SK-OV-3; SK-OV-3, ovarian cancer, no p53 protein expressed, 48 h", "result": "> 100", "unit": "µM"}, {"measurement": "TGI", "setting": "A498; A498, renal cancer, wild-type p53, 48 h", "result": "> 100", "unit": "µM"}, {"measurement": "GI50", "setting": "A498; Homo sapiens, A498, 48 h", "result": 2.09, "unit": "µM"}, {"measurement": "CC50", "setting": "A498; Homo sapiens, A498, 48 h, read-out: LC50", "result": "> 100", "unit": "µM"}, {"measurement": "GI50", "setting": "ACHN; Homo sapiens, 48 h", "result": 8.5, "unit": "µM"}, {"measurement": "CC50", "setting": "ACHN; [3]", "result": "> 100", "unit": "µM"}, {"measurement": "TGI", "setting": "ACHN; renal cancer, wild-type p53, 48 h", "result": "> 100", "unit": "µM"}, {"measurement": "GI50", "setting": "UO-31; Homo sapiens, UO-31, 48 h", "result": "> 100", "unit": "µM"}, {"measurement": "CC50", "setting": "UO-31; Homo sapiens, UO-31, 48 h, read-out: LC50", "result": "> 100", "unit": "µM"}, {"measurement": "TGI", "setting": "UO-31; UO-31, renal cancer, wild-type p53, 48 h", "result": "> 100", "unit": "µM"}, {"measurement": "TGI", "setting": "DU-145; DU-145, prostate cancer, mutant p53, 48 h", "result": 1.44, "unit": "µM"}, {"measurement": "GI50", "setting": "DU-145; Homo sapiens, DU-145, 48 h", "result": 0.341, "unit": "µM"}, {"measurement": "CC50", "setting": "DU-145; Homo sapiens, DU-145, 48 h, read-out: LC50", "result": "> 100", "unit": "µM"}, {"measurement": "GI50", "setting": "MCF7; Homo sapiens, MCF7, 48 h", "result": 0.415, "unit": "µM"}, {"measurement": "CC50", "setting": "MCF7; Homo sapiens, MCF7, 48 h, read-out: LC50", "result": "> 100", "unit": "µM"}, {"measurement": "TGI", "setting": "MCF7; MCF7, breast cancer, wild-type p53, 48 h", "result": "> 100", "unit": "µM"}, {"measurement": "GI50", "setting": "MDA-MB-468; Homo sapiens, MDA-MB-468, 48 h", "result": 0.158, "unit": "µM"}, {"measurement": "CC50", "setting": "MDA-MB-468; Homo sapiens, MDA-MB-468, 48 h, read-out: LC50", "result": "> 100", "unit": "µM"}, {"measurement": "TGI", "setting": "MDA-MB-468; MDA-MB-468, breast cancer, mutant p53, 48 h", "result": 0.464, "unit": "µM"}, {"measurement": "GI50", "setting": "[1]; Homo sapiens, read-out: Mean of Inhibition Data (MID) GI50, 10^MID", "result": 0.933, "unit": "µM"}, {"measurement": "CC50", "setting": "[1]; Homo sapiens, read-out: Mean of Inhibition Data (MID) LC50, 10^MID", "result": 95.5, "unit": "µM"}, {"measurement": "induction of cancer cell death (classification)", "setting": "[1]; NCI 60 panel overall", "result": "acts only cytostatic"}, {"measurement": "Mean of Inhibition Data (MID) TGI, 10^MID", "setting": "[1]; mean over all tested cell lines of the NCI 60 panel", "result": 32.359, "unit": "µM"}]}]}
